Experimental data reported in patent US10329309B2, “3-(3H-imidazo[4,5-B]pyridin-2-yl)-1H-pyrazolo[4,3-B]pyridines and therapeutic uses thereof” (Samumed, LLC, priority 2015, dated 2019).

Test system: IL-6 (THP-1 cells)
Experiment: Inhibition of IL-6 in LPS-stimulated THP-1 monocytes (HTRF)
Assay type: cell-based
Conditions: Homo sapiens; for EC50: LPS 500 ng/mL, IL-6 by HTRF; for inhibition at 10 µM: LPS stimulated, IL-6, at 10 μM, read-out: percent inhibition at 10 μM (given for EC50 of >10 μM)
Protocol: Human monocyte cell line (THP-1 cells; Catalog # TIB-202, ATCC, Manassas, Va.) were cultured in Roswell Park Memorial Institute (RPMI) 1640 Medium (Catalog #21870-100, Buffalo, N.Y.) with 1% L-glutamine, 1% HEPES, 1% Sodium Pyruvate, 2% Sodium Bicarbonate supplemented with 100 units/mL penicillin, 50 μg/mL streptomycin, 2-mercaptoethanol (0.05 mM) [basal medium] and 10% fetal bovine serum (Catalog #16140089, Life Technologies, Carlsbad, Calif.) at 37° C. and 5% CO2.
THP-1 cells were cultured in basal media with 1% FBS for 24 hours before the start of the assay. Each compound was dissolved in DMSO as a 10 mM stock and used to prepare compound source plates. Serial dilution (1:3, 10-point dose-response curves starting from 10 μM) and compound transfer was performed using the ECHO 550 (Labcyte, Sunnyvale, Calif.) into 384-well white low volume assay plates (Greiner Bio-One) with appropriate DMSO backfill for a final DMSO concentration of 0.1%. THP-1 cells were plated at 5000 cells/well in the 384-well plates and incubated at 37° C. for 2 h. 500 ng/mL of LPS was added after 2 hours and cells were incubated for another 22 hours at 37° C. Plates were spun in a centrifuge for 1 minute at […] and a mixture of anti-IL6 XL665, and anti-IL6 Cryptate diluted in reconstitution buffer (Cisbio Inc.) was added to each well. Following incubation for 3 hrs at room temperature, Homogeneous Time-Resolved Fluorescence (HTRF) was measured using the Envision (Perkin Elmer) at 665 nm and […]. The ratio of fluorescence at 665 nm to 620 nm was used as a readout for IL6 quantification. All samples were processed in duplicate. Readings were normalized to DMSO treated cells and normalized activities were utilized for EC50 calculations using the dose-response log (inhibitor) vs. response -variable slope (four parameters) nonlinear regression feature available in GraphPad Prism 5.0 (or Dotmatics). For EC50 of >10 μM, the percent inhibition at 10 μM is provided.

SMILES | EC50 [µM] | inhibition at 10 µM [%]
CN1CCN(c2ccnc3[nH]c(-c4n[nH]c5ccc(-c6cncc(NC(=O)C7CCCC7)c6)nc45)nc23)CC1 [Compound 246, N-(5-(3-(7-(4-Methylpiperazin-1-yl)-3H-imidazo[4,5-b]pyridin-2-yl)-1H-pyrazolo[4,3-b]pyridin-5-yl)pyridin-3-yl)cyclopentanecarboxamide] | > 10 | 15.7
c1cc(-c2ccnc3[nH]c(-c4n[nH]c5ccc(-c6cncc(OC7CCNCC7)c6)nc45)nc23)ccn1 [Compound 576, 5-(5-(Piperidin-4-yloxy)pyridin-3-yl)-3-(7-(pyridin-4-yl)-3H-imidazo[4,5-b]pyridin-2-yl)-1H-pyrazolo[4,3-b]pyridine] | > 10 | 38.1
COc1cncc(-c2ccc3[nH]nc(-c4nc5c(N6CCCCC6)ccnc5[nH]4)c3n2)c1 [Compound 612, 5-(5-Methoxypyridin-3-yl)-3-(7-(piperidin-1-yl)-3H-imidazo[4,5-b]pyridin-2-yl)-1H-pyrazolo[4,3-b]pyridine] | > 10 | 44.6
CS(=O)(=O)NCc1cc(F)cc(-c2ccnc3[nH]c(-c4n[nH]c5ccc(-c6cncc(NC(=O)c7ccccc7)c6)nc45)nc23)c1 [Compound 487, N-(5-(3-(7-(3-Fluoro-5-(methylsulfonamidomethyl)phenyl)-3H-imidazo[4,5-b]pyridin-2-yl)-1H-pyrazolo[4,3-b]pyridin-5-yl)pyridin-3-yl)benzamide] | > 10 | 0
O=C(Nc1cncc(-c2ccc3[nH]nc(-c4nc5c(-c6ccccn6)ccnc5[nH]4)c3n2)c1)c1ccccc1 [Compound 151, N-(5-(3-(7-(Pyridin-2-yl)-3H-imidazo[4,5-b]pyridin-2-yl)-1H-pyrazolo[4,3-b]pyridin-5-yl)pyridin-3-yl)benzamide] | > 10 | 39.1
CC(C)(C)CC(=O)Nc1cncc(-c2ccc3[nH]nc(-c4nc5cccnc5[nH]4)c3n2)c1 [Compound 268, N-(5-(3-(3H-Imidazo[4,5-b]pyridin-2-yl)-1H-pyrazolo[4,3-b]pyridin-5-yl)pyridin-3-yl)-3,3-dimethylbutanamide] | > 10 | 32.5
c1cc(N2CCCCC2)c2nc(-c3n[nH]c4ccc(-c5cncc(OCCN6CCCC6)c5)nc34)[nH]c2n1 [Compound 610, 3-(7-(Piperidin-1-yl)-3H-imidazo[4,5-b]pyridin-2-yl)-5-(5-(2-(pyrrolidin-1-yl)ethoxy)pyridin-3-yl)-1H-pyrazolo[4,3-b]pyridine] | > 10 | 25.3
O=C(Nc1cncc(-c2ccc3[nH]nc(-c4nc5c(-c6ccccc6F)ccnc5[nH]4)c3n2)c1)C1CCCC1 [Compound 78, N-(5-(3-(7-(2-fluorophenyl)-3H-imidazo[4,5-b]pyridin-2-yl)-1H-pyrazolo [4,3-b]pyridin-5-yl)pyridin-3-yl)cyclopentanecarboxamide] | 7.92 | –
Cc1ccc(-c2ccnc3[nH]c(-c4n[nH]c5ccc(-c6cncc(NC(=O)C7CCCC7)c6)nc45)nc23)s1 [Compound 414, N-(5-(3-(7-(5-Methylthiophen-2-yl)-3H-imidazo[4,5-b]pyridin-2-yl)-1H-pyrazolo[4,3-b]pyridin-5-yl)pyridin-3-yl)cyclopentanecarboxamide] | 1.85 | –
CN1CCN(c2ccnc3[nH]c(-c4n[nH]c5ccc(-c6cncnc6)nc45)nc23)CC1 [Compound 251, 3-(7-(4-Methylpiperazin-1-yl)-3H-imidazo[4,5-b]pyridin-2-yl)-5-(pyrimidin-5-yl)-1H-pyrazolo[4,3-b]pyridine] | > 10 | 8.3
c1ccc(COc2cncc(-c3ccc4[nH]nc(-c5nc6c(-c7ccncc7)ccnc6[nH]5)c4n3)c2)cc1 [Compound 582, 5-(5-(Benzyloxy)pyridin-3-yl)-3-(7-(pyridin-4-yl)-3H-imidazo[4,5-b]pyridin-2-yl)-1H-pyrazolo[4,3-b]pyridine] | > 10 | 3.2

Now from value to molecule, other results behind:

EC50 [µM] | SMILES | inhibition at 10 µM [%]
> 10 | CN(C)CCNc1cc(F)cc(-c2ccnc3[nH]c(-c4n[nH]c5ccc(-c6cncc(OCCN7CCCC7)c6)nc45)nc23)c1 [Compound 786, N^1-(3-Fluoro-5-(2-(5-(5-(2-(pyrrolidin-1-yl)ethoxy)pyridin-3-yl)-1H-pyrazolo[4,3-b]pyridin-3-yl)-3H-imidazo[4,5-b]pyridin-7-yl)phenyl)-N^2,N^2-dimethylethane-1,2-diamine] | 0
1.79 | Cc1ccc(-c2ccnc3[nH]c(-c4n[nH]c5ccc(-c6cncc(OC7CCCCC7)c6)nc45)nc23)s1 [Compound 735, 5-(5-(Cyclohexyloxy)pyridin-3-yl)-3-(7-(5-methylthiophen-2-yl)-3H-imidazo[4,5-b]pyridin-2-yl)-1H-pyrazolo[4,3-b]pyridine] | –
> 10 | COc1cccc(-c2ccnc3[nH]c(-c4n[nH]c5ccc(-c6cncc(O)c6)nc45)nc23)c1 [Compound 1030, 5-(3-(7-(3-Methoxyphenyl)-3H-imidazo[4,5-b]pyridin-2-yl)-1H-pyrazolo [4,3-b]pyridin-5-yl)pyridin-3-ol] | 40.9
> 10 | Cn1cc(-c2ccc3[nH]nc(-c4nc5c(-c6cc(F)cc(CNS(C)(=O)=O)c6)ccnc5[nH]4)c3n2)cn1 [Compound 764, N-(3-Fluoro-5-(2-(5-(1-methyl-1H-pyrazol-4-yl)-1H-pyrazolo[4,3-b]pyridin-3-yl)-3H-imidazo[4,5-b]pyridin-7-yl)benzyl)methanesulfonamide] | 24.2
0.404 | Cc1cn(-c2ccnc3[nH]c(-c4n[nH]c5ccc(-c6cncc(OCCN(C)C)c6)nc45)nc23)cn1 [Compound 627, N,N-Dimethyl-2-((5-(3-(7-(4-methyl-1H-imidazol-1-yl)-3H-imidazo[4,5-b]pyridin-2-yl)-1H-pyrazolo[4,3-b]pyridin-5-yl)pyridin-3-yl)oxy)ethan-1-amine] | –
7.6 | c1cnc2[nH]c(-c3n[nH]c4ccc(-c5cncc(OC6CCNCC6)c5)nc34)nc2c1 [Compound 656, 3-(3H-Imidazo[4,5-b]pyridin-2-yl)-5-(5-(piperidin-4-yloxy)pyridin-3-yl)-1H-pyrazolo[4,3-b]pyridine] | –
> 10 | c1cc(-c2ccoc2)c2nc(-c3n[nH]c4ccc(-c5cncc(OCCN6CCCC6)c5)nc34)[nH]c2n1 [Compound 690, 3-(7-(Furan-3-yl)-3H-imidazo[4,5-b]pyridin-2-yl)-5-(5-(2-(pyrrolidin-1-yl)ethoxy)pyridin-3-yl)-1H-pyrazolo[4,3-b]pyridine] | 42.9
> 10 | Cn1cc(-c2ccc3[nH]nc(-c4nc5c(N6CCCCC6)ccnc5[nH]4)c3n2)c(CO)n1 [Compound 1134, (1-Methyl-4-(3-(7-(piperidin-1-yl)-3H-imidazo[4,5-b]pyridin-2-yl)-1H-pyrazolo[4,3-b]pyridin-5-yl)-1H-pyrazol-3-yl)methanol] | 12.6
> 10 | Oc1cncc(-c2ccc3[nH]nc(-c4nc5cccnc5[nH]4)c3n2)c1 [Compound 661, 5-(3-(3H-Imidazo[4,5-b]pyridin-2-yl)-1H-pyrazolo[4,3-b]pyridin-5-yl) pyridin-3-ol] | 27.9
> 10 | CN1CCN(c2ccnc3[nH]c(-c4n[nH]c5ccc(-c6cnccn6)nc45)nc23)CC1 [Compound 648, 3-(7-(4-Methylpiperazin-1-yl)-3H-imidazo[4,5-b]pyridin-2-yl)-5-(pyrazin-2-yl)-1H-pyrazolo[4,3-b]pyridine] | 9.9
> 10 | Cc1ncc(-c2ccc3[nH]nc(-c4nc5c(-c6ccoc6)ccnc5[nH]4)c3n2)n1C [Compound 685, 5-(1,2-Dimethyl-1H-imidazol-5-yl)-3-(7-(furan-3-yl)-3H-imidazo[4,5-b]pyridin-2-yl)-1H-pyrazolo[4,3-b]pyridine] | 24.3
> 10 | COc1cccc(-c2ccnc3[nH]c(-c4n[nH]c5ccc(-c6cncc(OC7CCNCC7)c6)nc45)nc23)c1 [Compound 1025, 3-(7-(3-Methoxyphenyl)-3H-imidazo[4,5-b]pyridin-2-yl)-5-(5-(piperidin-4-yloxy)pyridin-3-yl)-1H-pyrazolo[4,3-b]pyridine] | 26.5
> 10 | Cn1cc(-c2ccc3[nH]nc(-c4nc5c(-c6ccc7c(c6)OCO7)ccnc5[nH]4)c3n2)c(CO)n1 [Compound 1152, (4-(3-(7-(Benzo[d][1,3]dioxol-5-yl)-3H-imidazo[4,5-b]pyridin-2-yl)-1H-pyrazolo[4,3-b]pyridin-5-yl)-1-methyl-1H-pyrazol-3-yl)methanol] | 28.4
